In brackets after ≈: the same amount, converted by molar mass.
Columns and labels:
[1] = test system: mESC-D3; test: Manual MTT cell viability assay, 7 d; type: cell-based, mouse
Procedure: (§1) The MTT cell viability assay was performed as described (Seiler and Spielmann [2011]) with modifications. In brief, 96-well cell culture plates were coated with gelatin (0.1%) before plating mESC-D3. All peripheral wells of the assay plate were filled with 200 μl growth media (“blank”). Afterward, NIH/3T3 and mESC-D3 were plated in growth media (1 × 10^4 cells/ml, 50 μl/well). […] Vehicle (PBS) and positive control (5-fluorouracil) wells were also included on all assay plates. Three and 5 days after seeding the cell supernatant was replaced by freshly prepared compound solution (200 μl/well). Seven days after seeding the cell viability was detected. Therefore, the cell supernatant was aspirated from all wells, MTT solution (5 mg/ml) was added (20 μl/well) and the assay plate was incubated for 2 h at 37 °C and 5% CO2 in a humidified atmosphere. Afterward, all liquid was removed from the wells and MTT desorb solution (0.7% SDS in 2-propanol (Carl Roth, Cat. No. 9866.5), pre-warmed to 37 °C) was dispensed (130 μl/well). The assay plate was placed on a shaker for 15 min. Remaining precipitates were suspended by pipetting up and down with a multichannel pipette before measuring the absorption at 570 nm on a microtiter plate reader using 630 nm as a reference wavelength.
(§2) Toxicity data from the MTT and CellTiter-Glo Assay was normalized against the vehicle control (100% viability) and plotted against the logarithmic compound concentration.

[2] = test system: NIH/3T3; test: Manual MTT cell viability assay, 7 d; type: cell-based, mouse
Procedure: as §1, §2

[3] = test system: mESC-D3; test: Automated CellTiter-Glo luminescent cell viability (cytotoxicity) assay, 5 d
Procedure: (§3) The CellTiter-Glo® luminescent cell viability assay (Promega, Cat. No. G7573) was automated in 96-well format on the lab automation platform Fluent® (Tecan, Männedorf, Switzerland). The procedure allowed the testing of six compounds in mESC-D3 and NIH/3T3 cells in parallel. On the first day, PBS was dispensed into the peripheral wells of the assay plates (200 μl/well) using the Multiple Channel Arm (MCA). Mouse ES-D3 and NIH/3T3 cells were plated (50 μl/well, 1 × 10^4 cells/ml)) using the Flexible Channel Arm (FCA) and transported into the Cytomat™ 10 (Thermo Fisher Scientific) for incubation using the Robotic Gripper Arm (RGA). A 7-point dilution series of the test compounds and control solutions were prepared in PBS or DMSO (Carl Roth, Cat. No. HN47.1) under the laminar flow, transferred to a 96-well 0.5-ml Masterblock plate (Greiner bio-one, Cat. No. 786261) and placed on the worktable. On the Fluent the compounds were transferred to a 96-well 2-ml Masterblock plate (Greiner bio-one, Cat. No. 780271) and further diluted in growth media using the FCA. Two hours after cell plating compounds and controls were transferred to the assay plate with the FCA (150 μl/well) and transported back in the Cytomat 10. On day three of the assay, the media was exchanged using the MCA: old media was aspirated and dispensed into a 96-deep-well plate (“waste”), freshly prepared compound, and control solution was dispensed into the assay plate. After two more days of incubation, the cell viability was determined using the CellTiter-Glo assay. The assay plates were transported from the Cytomat 10 to the Carousel (Tecan) to adapt to room temperature. After 25 min the cell supernatant was removed partially (80 μl/well) and CellTiter-Glo reagent was dispensed (50 μl/well). The assay plate was placed on a shaker for 1 min and afterward incubated 25 min in the Carousel before the Luminescence signal was detected on the Infinite M1000 Pro plate reader (Tecan).
as §2

[4] = test system: NIH/3T3; test: as above
Procedure: as §3, §2

[5] = test system: mESC-D3; test: Manual CellTiter-Glo luminescent cell viability assay (7 d or 5 d); type: cell-based, mouse; conditions: in brackets the two individual experiments
Procedure: (§4) 96-well cell culture plates were coated with gelatin (0.1%) before plating mESC-D3. All peripheral wells of the assay plate were filled with 200 μl growth media. In order to assess compound toxicity on mESC-D3 and NIH/3T3 cells, cell suspensions of NIH/3T3, and mESC-D3 were prepared in growth media (1 × 10^4 cells/ml) and were transferred to all remaining wells (50 μl/well). A 7-point dilution series in growth media was prepared for each test compound and was transferred to the assay plate 2 h after cell seeding (150 μl/well). Afterward, the cells were incubated in a humidified atmosphere at 37 °C and 5% CO2. Three and 5 days after seeding the cell supernatant was replaced by freshly prepared compound solution (200 μl/well). […] The assay plate was placed on a shaker for 1 min and after another 10 min incubation at room temperature in the dark the luminescence signal was detected on a plate reader.
as §2

[6] = test system: NIH/3T3; test: as above; type: cell-based, mouse; conditions: in brackets the two individual experiments
Procedure: as §4, §2

[7] = test system: hiPSC line ZIPi013-E; test: Manual human EST cytotoxicity assay, MTT, 5 d
Procedure: (§5) The cytotoxicity assessment with a reduced assay time of 5 days combined with either NADH- or ATP-based detection was also carried out with human induced pluripotent stem cells (hiPSCs). […] Furthermore, differences in the cytotoxicity effects between the hiPSCs and HDFfs were more pronounced than in the mouse cells. Similar to the cytotoxicity-based assay the overall variance in the data is reduced when viability data was obtained by an ATP-based read-out.
as §1
(§6) Figure S1: Step-wise evolution of the cytotoxicity assay towards the use of human cell lines. Related to Figure 2. Cytotoxicity assays were carried out with two compound sets on hiPSC line ZIPi013-E and HDFf, from which they were derived. […] A) 5 day MTT assay and manual handling. B) As in A), but using CellTiter-Glo® viability assay. All points in the graph represent the mean of 6 individual data points, including the standard error.

[8] = test system: HDFf (human dermal fibroblasts of fetal origin); test: Manual human EST cytotoxicity assay, MTT, 5 d
Procedure: as §5, §1, §6

[9] = Manual MTT cell viability assay, 7 d; type: cell-based, mouse; conditions: mouse, manual, in brackets the two individual experiments
Procedure: as §1, §2

[10] = Automated CellTiter-Glo luminescent cell viability (cytotoxicity) assay, 5 d; conditions: mouse
Procedure: as §3, §2

[11] = Manual CellTiter-Glo luminescent cell viability assay (7 d or 5 d); type: cell-based, mouse; conditions: mouse, in brackets the two individual experiments
Procedure: as §4, §2

Structure (SMILES)	Cytotoxicity assay MTT, 7 d IC50 mESC-D3 [1]	Cytotoxicity assay MTT, 7 d IC50 NIH/3T3 [2]	Cytotoxicity assay CTG, 5 d IC50 mESC-D3 [3]	Cytotoxicity assay CTG, 5 d IC50 NIH/3T3 [4]	Cytotoxicity assay CTG, 5 d IC50 mESC-D3 ([5]; 5 d)	Cytotoxicity assay CTG, 7 d IC50 mESC-D3 ([5]; 7 d)	Cytotoxicity assay CTG, 5 d IC50 NIH/3T3 ([6]; 5 d)	Cytotoxicity assay CTG, 7 d IC50 NIH/ 3T3 ([6]; 7 d)	Cytotoxicity assay MTT, 5 d IC50 ZIPi013-E [7] [µg/mL]	Cytotoxicity assay MTT, 5 d IC50 HDFf [8] [µg/mL]	IC50 at 7 d ([9]; NIH/3T3 cells, read-out: Cytotoxicity assay MTT, 7 d IC50 NIH/3T3) [µg/mL]	IC50 at 7 d ([9]; mESC-D3 cells, read-out: Cytotoxicity assay MTT, 7 d IC50 mESC-D3) [µg/mL]	IC50 at 5 d ([10]; NIH/3T3 cells) [µg/mL]	IC50 at 5 d ([10]; mESC-D3 cells (mouse embryonic stem cells)) [µg/mL]	IC50 at 5 d ([11]; NIH/3T3 cells, read-out: Cytotoxicity assay CTG, 5 d IC50 NIH/3T3) [µg/mL]	IC50 at 7 d ([11]; NIH/3T3 cells, read-out: Cytotoxicity assay CTG, 7 d IC50 NIH/ 3T3) [µg/mL]	IC50 at 5 d ([11]; mESC-D3 cells, read-out: Cytotoxicity assay CTG, 5 d IC50 mESC-D3) [µg/mL]	IC50 at 7 d ([11]; mESC-D3 cells, read-out: Cytotoxicity assay CTG, 7 d IC50 mESC-D3) [µg/mL]
NC(=O)NO [Hydroxyurea, hydroxyurea]	2.11 (2.08; 2.15) µg/ml	2.17 (1.81; 2.53) µg/ml	2.28 (1.69; 2.87) μg/ml	4.01 (3.97; 4.06) μg/ml	3.19 (4.12; 2.26) µg/ml	2.37 (2.28; 2.46) µg/ml	3.12 (> 10; 3.12) µg/ml	4.83 (> 10; 4.83) µg/ml	0.3326	4.005								
O=C1NS(=O)(=O)c2ccccc21 [Saccharin, saccharin]											> 1000	> 1000	> 1000	393 (≈ 2.15 mM)	> 1000	> 1000	464 (≈ 2.53 mM)	> 1000

— paper PMC8012336, “An automated and high-throughput-screening compatible pluripotent stem cell-based test platform for developmental and reproductive toxicity assessment of small molecule compounds” (Cell Biology and Toxicology, 2020)
